Test [1] addresses T1, Acetylcholinesterase (Rattus norvegicus, UniProt P37136).
T1 sequence (P37136 whole entry): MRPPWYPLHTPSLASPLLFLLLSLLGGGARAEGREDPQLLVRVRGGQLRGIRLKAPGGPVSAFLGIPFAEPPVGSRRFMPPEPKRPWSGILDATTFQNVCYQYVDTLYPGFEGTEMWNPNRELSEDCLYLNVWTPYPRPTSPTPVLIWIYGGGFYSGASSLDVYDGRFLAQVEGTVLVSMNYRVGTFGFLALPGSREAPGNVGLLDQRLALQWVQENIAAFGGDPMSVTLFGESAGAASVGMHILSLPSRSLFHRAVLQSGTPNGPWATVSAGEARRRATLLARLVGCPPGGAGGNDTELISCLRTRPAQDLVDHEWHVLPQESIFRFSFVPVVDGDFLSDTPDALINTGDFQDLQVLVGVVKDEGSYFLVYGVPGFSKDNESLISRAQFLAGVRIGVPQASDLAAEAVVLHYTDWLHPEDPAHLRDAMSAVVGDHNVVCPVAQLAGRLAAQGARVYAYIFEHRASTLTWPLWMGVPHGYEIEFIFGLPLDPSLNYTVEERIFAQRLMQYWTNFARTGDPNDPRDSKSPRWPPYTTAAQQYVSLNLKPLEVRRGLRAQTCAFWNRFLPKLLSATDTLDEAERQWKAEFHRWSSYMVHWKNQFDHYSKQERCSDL
The test can be described thus: Inhibition of rat brain homogenate AchE.

Test [2] has as its target Acetylcholinesterase (Homo sapiens, UniProt P22303). The test can be described thus: Inhibition of human serum AchE.
In test [3] the target is Acetylcholinesterase (Electrophorus electricus, UniProt O42275). Put plainly: Inhibition of electric eel AchE.
Test [4] concerns Rattus norvegicus. Put plainly: Antiamnesic effect against scopolamine-induced memory loss in passive avoidance step-down task paradigm in rat assessed as number of mistakes at 0.1 mg/kg, ip. In kind it is functional. The note with it: route intraperitoneal.
The test system of test [5] is Rattus norvegicus. Put plainly: Antiamnesic effect in passive avoidance step-down task paradigm in rat assessed as number of mistakes at 0.4 mg/kg, ip. In kind it is functional. As to conditions: route intraperitoneal; call rule not given here.

What is called IC50 is the concentration needed to halve the response being measured.

Sequence of Acetylcholinesterase (Electrophorus electricus, UniProt O42275) (O42275 whole entry): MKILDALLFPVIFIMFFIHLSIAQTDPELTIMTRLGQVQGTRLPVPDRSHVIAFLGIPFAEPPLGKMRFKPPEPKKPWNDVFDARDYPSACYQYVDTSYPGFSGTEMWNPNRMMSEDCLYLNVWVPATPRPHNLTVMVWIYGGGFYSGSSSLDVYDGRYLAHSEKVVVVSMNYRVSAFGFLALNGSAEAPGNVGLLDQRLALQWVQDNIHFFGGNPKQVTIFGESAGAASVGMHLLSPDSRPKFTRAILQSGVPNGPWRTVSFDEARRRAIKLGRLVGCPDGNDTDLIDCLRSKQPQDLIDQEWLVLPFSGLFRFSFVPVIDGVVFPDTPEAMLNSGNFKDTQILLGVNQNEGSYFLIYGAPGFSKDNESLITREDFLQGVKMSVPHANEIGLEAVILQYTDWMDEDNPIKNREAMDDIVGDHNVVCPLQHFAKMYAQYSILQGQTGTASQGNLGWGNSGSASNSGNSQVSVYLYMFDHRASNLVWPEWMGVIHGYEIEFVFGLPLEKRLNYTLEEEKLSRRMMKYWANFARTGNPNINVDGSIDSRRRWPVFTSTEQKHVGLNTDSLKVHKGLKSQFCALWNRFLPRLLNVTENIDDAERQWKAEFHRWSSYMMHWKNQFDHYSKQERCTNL
Sequence of Acetylcholinesterase (Homo sapiens, UniProt P22303) (P22303 whole entry): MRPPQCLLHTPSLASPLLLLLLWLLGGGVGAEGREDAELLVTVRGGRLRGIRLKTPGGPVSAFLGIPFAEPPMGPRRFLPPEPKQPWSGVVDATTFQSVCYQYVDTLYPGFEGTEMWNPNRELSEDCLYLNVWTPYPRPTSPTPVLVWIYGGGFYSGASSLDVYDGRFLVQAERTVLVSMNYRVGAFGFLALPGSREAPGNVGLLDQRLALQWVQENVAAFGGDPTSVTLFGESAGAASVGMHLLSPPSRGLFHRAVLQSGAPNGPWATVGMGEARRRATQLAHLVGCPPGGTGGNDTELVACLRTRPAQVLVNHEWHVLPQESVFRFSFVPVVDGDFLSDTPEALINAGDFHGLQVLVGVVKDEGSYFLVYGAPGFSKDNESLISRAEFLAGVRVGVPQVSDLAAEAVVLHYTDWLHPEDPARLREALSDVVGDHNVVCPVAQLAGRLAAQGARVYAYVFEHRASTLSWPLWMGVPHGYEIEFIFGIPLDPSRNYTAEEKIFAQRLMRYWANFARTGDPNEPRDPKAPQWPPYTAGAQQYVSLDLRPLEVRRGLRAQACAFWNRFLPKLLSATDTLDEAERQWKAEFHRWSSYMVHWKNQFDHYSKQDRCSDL

As for `N#Cc1ccccc1-c1ccc(CN2CCN(C(c3ccc(F)cc3)c3ccc(F)cc3)CC2)cc1`, the IC50 stood at 37.5 nM on Acetylcholinesterase [1] (read-out: IC50), 73.6 nM against Acetylcholinesterase [2] and 70.5 nM at Acetylcholinesterase [3]. The Activity with Rattus norvegicus [4] came to 11.

Take `Cc1nc2ccccn2c(=O)c1CCN1CCN(C(c2ccc(F)cc2)c2ccc(F)cc2)CC1`: the IC50 result at Acetylcholinesterase [1] was “Not Active”; at Acetylcholinesterase [2], 3200 nM; against Acetylcholinesterase [3], 2130 nM. Also, the Activity in the test with Rattus norvegicus [4] came out at 32.

As for `COc1cc(Br)c(CN2CCN(C(c3ccc(F)cc3)c3ccc(F)cc3)CC2)cc1OC`, the results for the IC50 entry against Acetylcholinesterase [1], against Acetylcholinesterase [2] and against Acetylcholinesterase [3] were “Not Active”, 1010 nM and 715 nM, respectively. In the test with Rattus norvegicus [4], the Activity is listed as 34.

On to `Fc1ccc(C(c2ccc(F)cc2)N2CCN(CCN3CCCCC3)CC2)cc1`, for which the IC50 on Acetylcholinesterase [1] (read-out: IC50) was 93.7 nM; against Acetylcholinesterase [2] it was 126 nM; at Acetylcholinesterase [3], 135 nM. Moreover, the Activity in the test with Rattus norvegicus [4] was 12.

Regarding `CC1=C(CCN2CCN(C(c3ccc(F)cc3)c3ccc(F)cc3)CC2)C(=O)C2CCCCC2=N1` (stereo not given), the 50% inhibitory concentration (IC50) result against Acetylcholinesterase [1] is “Not Active”; against Acetylcholinesterase [2] it was 1070 nM; on Acetylcholinesterase [3], 1210 nM. In addition, in the test on Rattus norvegicus [4], the Activity stood at 34.

Turning to `Cc1cc2c(cc1CN1CCN(C(c3ccc(F)cc3)c3ccc(F)cc3)CC1)OCO2`, the results for the IC50 result on Acetylcholinesterase [1], at Acetylcholinesterase [2] and at Acetylcholinesterase [3] were “Not Active”, 1340 nM and 1140 nM, respectively. For the same molecule, the Activity with Rattus norvegicus [4] turned out to be 33.

For the molecule `Fc1ccc(C(c2ccc(F)cc2)N2CCN(CCN3CCOCC3)CC2)cc1`, the IC50 on Acetylcholinesterase [1] (read-out: IC50) was 200 nM; against Acetylcholinesterase [2], 284 nM; against Acetylcholinesterase [3], 253 nM. In the test with Rattus norvegicus [4], the Activity is 16.

In the case of `Fc1ccc(C(c2ccc(F)cc2)N2CCN(CCN3CCCC3)CC2)cc1`, the IC50 on Acetylcholinesterase [1] (read-out: IC50) came out at 18.7 nM; against Acetylcholinesterase [2] it was 21 nM; on Acetylcholinesterase [3], 17.6 nM. For the same molecule, the Activity with Rattus norvegicus [4] worked out at 10.

With `CN(C)C(=O)Oc1cccc([N+](C)(C)C)c1` [NEOSTIGMINE METHYLSULFATE], the IC50 at Acetylcholinesterase [1] (read-out: IC50) was found to be 37.5 nM; against Acetylcholinesterase [3], 41100 nM.

On to `CN1[C@@H]2C[C@@H](OC(=O)[C@H](CO)c3ccccc3)C[C@H]1[C@@H]1O[C@@H]12` [SCOPOLAMINE], for which, in the test on Rattus norvegicus [5], the Activity is 35.

(Values after ChEMBL document CHEMBL1138964, “Synthesis and efficacy of 1-[bis(4-fluorophenyl)-methyl]piperazine derivatives for acetylcholinesterase inhibition, as a stimulant of central cholinergic neurotransmission in Alzheimer's disease” (Bioorg Med Chem Lett, 2006).)
